In article PMC10928576, “Cpne7 deficiency induces cellular senescence and premature aging of dental pulp” (Aging Cell, 2023):

Key:
hDPCs [1] = assay: Senescence β-galactosidase (SA-β gal) staining of H2O2-treated hDPCs; type: cell-based, human; settings: hDPCs, 1 mM H2O2, 30 min
Experimental: The hDPCs were obtained from the Seoul National University Dental Hospital, and the experimental protocol was accepted by the Institutional Review Board of the Seoul National University (S‐D20140007). Informed consent was obtained from patients. Human DPCs were isolated and used in an in vitro experiment as described previously (Jung et al., [2011]). Human DPCs were cultured in minimum essential medium α (Gibco BRL, 12571063) supplemented with 10% heat‐inactivated fetal bovine serum (FBS; Gibco BRL, 16000044) and antibiotic‐antimycotic (Gibco BRL, 15240062) at 37°C in an atmosphere with 5% CO2. The cells were then treated with recombinant CPNE7 protein (rCPNE7, 100 ng/mL; Origene, TP306428) or CPNE7‐derived peptide (CPNE7‐DP, 10 μg/mL). After oxidative stress‐induced DNA damage using Hydrogen Peroxide Solution (H2O2; Merck, H1009) rCPNE7 was treated after replacement with a new culture medium (α‐MEM).
Human DPCs were fixated with Fixative Solution (Cell Signaling Technology, #9860) at room temperature for 15 min. Rinsed twice with PBS, the cells were then stained with β‐Galactosidase Staining Solution (Cell Signaling Technology, #9860) at 37°C overnight in a dry incubator (no CO2). Cells were observed using light microscopy (Primovert, Zeiss, Germany) (n = 3, each group).

hDPCs [2] = assay: γ-H2AX immunofluorescence in hDPCs; type: cell-based, human; settings: 1 mM H2O2, vs control
Experimental: Human DPCs and tissue sections were treated with phosphate‐buffered saline (PBS) and 0.5% Triton X‐100 for permeabilization. After washing and blocking, cells and tissue samples were incubated overnight at 4°C with γ‐H2AX (1:100, Cell Signaling Technology, #9718) and CPNE7 (1:100) in blocking buffer (PBS and 2% bovine serum albumin). Subsequently, FITC‐conjugated anti‐rabbit secondary antibody (1:500) or Cy3‐conjugated anti‐rabbit (1:500) was applied. Cells were visualized using confocal microscopy (LSM980, Zeiss, Germany). The chromosomal DNA in the nucleus was stained with 4′,6‐diamidino‐2‐phenylindole (DAPI). The microtubules were detected using α‐TUBULIN antibodies (1:1000; Santa Cruz), and F‐ACTIN was stained with Alexa Fluor 488 or rhodamine‐conjugated phalloidin (Invitrogen). Flag‐tagged rCPNE7 was detected using Flag‐antibodies (1:500; Sigma–Aldrich), and TAU was detected by TAU antibodies (1:100; CUSABIO). Immunofluorescence staining of TAU, F‐ACTIN, and α‐TUBULIN was analyzed using the IMARIS cell imaging software (Bitplane) (n = 3, each group).

hDPCs [3] = assay: γ-H2AX / P21 western blot in H2O2-treated hDPCs; type: cell-based, human
Experimental: Cellular proteins (30 μg) were separated by 10% or 15% sodium dodecyl sulfate‐polyacrylamide gel electrophoresis (SDS‐PAGE) and transferred to polyvinylidene fluoride (PVDF) membranes. The PVDF membranes were blocked for 1 h with 5% nonfat dry milk in Tris‐buffered saline containing 0.1% Tween 20 (TBS‐T) and incubated overnight at 4°C with the primary antibody diluted in TBS‐T (1:5000). After washing, membranes were incubated for 1 h with the appropriate secondary antibodies. Labeled protein bands were detected under an enhanced chemiluminescence system (Amersham Biosciences/GE Healthcare). All reactions were performed in triplicate. Semi‐quantitative analyses were performed using Image J software (National Institute of Health, MD, USA) (n = 3, each group).

hDPCs [4] = assay: Comet assay; type: cell-based, human; settings: 1 mM H2O2
Experimental: Human DPCs were combined with Comet Agarose (Abcam, ab238544) at 1/10 ratio (v/v), mixed by pipetting, and immediately transferred onto the top of the Comer Agarose Base Layer Slide (Abcam, ab238544). Set horizontally, the slides were incubated at 4°C in the dark for 15 min, and placed in a small basin/container containing pre‐chilled Lysis Buffer (Abcam, ab238544). They were immersed in the buffer for 1 h at 4°C in the dark. After 1 h, aspiration of the Lysis Buffer from the container was done and replaced with a pre‐chilled Alkaline Solution (Abcam, ab238544), followed by electrophoresis chamber filled with the Alkaline Electrophoresis Solution. Voltage was applied to the chamber for 30 min at 1 volt/cm. The slides were then rinsed with pre‐chilled DI H2O and replaced with cold 70% Ethanol for 5 min. The slide was removed from the 70% Ethanol and allowed to air dry. Once the slide was completely dry, staining with Vista Green DNA Dye (Abcam, ab238544) was done at room temperature for 15 min. Cells were visualized using confocal microscopy (LSM980, Zeiss, Germany) (n = 3, each group).

hDPCs [5] = test system: hDPCs
hDPCs [6] = settings: 30 min or 1 h after H2O2 100 μM, 500 μM or 1 mM

Question: How did the “SA-β gal positive signals (induction of senescence)” value (hDPCs [1]) turn out when `OO` [H2O2, hydrogen peroxide, reference compound] was run?
Answer: began to deposit

Question: And the “expression of γ-H2AX (immunofluorescence)” value (hDPCs [2])?
Answer: specifically detected in cellular nuclei

Question: What about the “expressions of γ-H2AX and P21 (DNA damage and cell cycle arrest)” value (hDPCs [3]; 500 μM H2O2) of the same compound?
Answer: upregulated

Question: What about the “protein expression level of γ-H2AX (western blot)” value (hDPCs [3]; 1 mM and 2 mM H2O2) of the same compound?
Answer: clearly detected

Question: And the “DNA fragmentation (comet assay)” value (hDPCs [4])?
Answer: fragmented DNA visualized as a cell tail

Question: What about the “cytotoxicity of oxidative stress” value (hDPCs [5]; 1 mM and 2 mM H2O2, after 48 h) of the same compound?
Answer: severe cytotoxicity

Question: And the “cell death / survival rate (WST-8)” value (hDPCs [5]; H2O2 50 μM to 2 mM for 24 h)?
Answer: cell death occurred in a concentration‐dependent manner except for 50 μM

Question: What about the “endogenous mRNA expression level of Cpne7” value (hDPCs [6]) of the same compound?
Answer: started to increase
